Assay: recombinant barcode read abundance after kanamycin selection (control-corrected) (log10(CPM+1)); higher = more efficient recombination; sequences stand for … in AGTGCAGAGAAAATCGGCCAGTTTTCTCTGCCTGCAGTCCGCATGCCGT…AGATTTATGCAGCGGACTGCCTTTCTCCCAAAGTGATAAACCGGACAGTATCATGGACCGGTTTTCCCGGTAATCCGTATTTGCAAGGTTGGTTTCACT; site = the 11-nt target
Outline: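 Targets were screened in pooled form in E. coli against IS621 bridge RNA target-binding loops. Recombination efficiency is based on barcode counts at recombinant junctions in counts per million, averaged and corrected for the control. Numbers are shown as log10(CPM+1), with duplicate plates on chloramphenicol/ampicillin LB agar (control) or chloramphenicol/ampicillin/kanamycin with 0.1 mM IPTG.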
In the case of “TATAATACTTGGGTTCTAACCTGTTGCGG (site TATAATACTCC)”, the “recombinant barcode read abundance (log10)” value is reported as 0.659. For “TATAGAGCTTGGGTTCTAACCTGTTGCGG (site TAAAGAGCTCC)”, the “recombinant barcode read abundance (log10)” value was 0.358. In the case of “TATAGAGCTTGGGTTCTAACCTGTTGCGG (site TACAGAGCTCC)”, the “recombinant barcode read abundance (log10)” value is reported as 0.297. In the case of “TATAGAGCTTGGGTTCTAACCTGTTGCGG (site TAGAGAGCTCC)”, the “recombinant barcode read abundance (log10)” value is reported as 0.488. In the case of “TATAGAGCTTGGGTTCTAACCTGTTGCGG (site TATAGAGCTCC)”, the “recombinant barcode read abundance (log10)” value is reported as 2.21. With “TATATAACTTGGGTTCTAACCTGTTGCCT (site TATAAAACTAG)” the “recombinant barcode read abundance (log10)” value was 0.137. In the case of “TATATAACTTGGGTTCTAACCTGTTGCCT (site TATACAACTAG)”, the “recombinant barcode read abundance (log10)” value is reported as 0.0941. For “TATATAACTTGGGTTCTAACCTGTTGCCT (site TATAGAACTAG)”, the “recombinant barcode read abundance (log10)” value was 0.119. In the case of “TATATAACTTGGGTTCTAACCTGTTGCCT (site TATATAACTAG)”, the “recombinant barcode read abundance (log10)” value is reported as 0.125. With “TATCAGACTTGGGTTCTAACCTGTTGCCA (site TATCAGACTTG)” the “recombinant barcode read abundance (log10)” value was 0.639. In the case of “TATCAGACTTGGGTTCTAACCTGTTGCCA (site TATCTGACTAG)”, the “recombinant barcode read abundance (log10)” value is reported as 0.119. For “TATCCGACTTGGGTTCTAACCTGTTGCCG (site TATCCGACTAG)”, the “recombinant barcode read abundance (log10)” value was 0.224. For “TATCCGACTTGGGTTCTAACCTGTTGCCG (site TATCCGACTCG)”, the “recombinant barcode read abundance (log10)” value was 0.396. In the case of “TATCCGACTTGGGTTCTAACCTGTTGCCG (site TATCCGACTGG)”, the “recombinant barcode read abundance (log10)” value is reported as 0.386. With “TATCCGACTTGGGTTCTAACCTGTTGCCG (site TATCCGACTTG)” the “recombinant barcode read abundance (log10)” value was 0.11. In the case of “TATCCGACTTGGGTTCTAACCTGTTGCCT (site TATCCGACTAG)”, the “recombinant barcode read abundance (log10)” value is reported as 1.12. In the case of “TATCCGACTTGGGTTCTAACCTGTTGCCT (site TATCCGACTCG)”, the “recombinant barcode read abundance (log10)” value is reported as 0.553. With “TATCCGACTTGGGTTCTAACCTGTTGCCT (site TATCCGACTGG)” the “recombinant barcode read abundance (log10)” value was 0.0369. With “TATCCGACTTGGGTTCTAACCTGTTGCCT (site TATCCGACTTG)” the “recombinant barcode read abundance (log10)” value was 0.0377. In the case of “TATGACGCTTGGGTTCTAACCTGTTGCCT (site TAAGACGCTAG)”, the “recombinant barcode read abundance (log10)” value is reported as 0.261. In the case of “TATGACGCTTGGGTTCTAACCTGTTGCCT (site TACGACGCTAG)”, the “recombinant barcode read abundance (log10)” value is reported as 0.124. With “TATGACGCTTGGGTTCTAACCTGTTGCCT (site TAGGACGCTAG)” the “recombinant barcode read abundance (log10)” value was 0.00539. In the case of “TATGACGCTTGGGTTCTAACCTGTTGCCT (site TATGACGCTAG)”, the “recombinant barcode read abundance (log10)” value is reported as 1.12. For “TATGCGGCTTGGGTTCTAACCTGTTGCCT (site TATGAGGCTAG)”, the “recombinant barcode read abundance (log10)” value was 0. In the case of “TATGCGGCTTGGGTTCTAACCTGTTGCCT (site TATGCGGCTAG)”, the “recombinant barcode read abundance (log10)” value is reported as 0.34. In the case of “TATGCGGCTTGGGTTCTAACCTGTTGCCT (site TATGGGGCTAG)”, the “recombinant barcode read abundance (log10)” value is reported as 0.193. For “TATGCGGCTTGGGTTCTAACCTGTTGCCT (site TATGTGGCTAG)”, the “recombinant barcode read abundance (log10)” value was 0.11. In the case of “TATTAATCTTGGGTTCTAACCTGTTGCCT (site CATTAGTCTAG)”, the “recombinant barcode read abundance (log10)” value is reported as 0.0101. In the case of “TATTAATCTTGGGTTCTAACCTGTTGCCT (site TATTAATCTAG)”, the “recombinant barcode read abundance (log10)” value is reported as 0.0472. For “TATTATACTTGGGTTCTAACCTGTTGCCT (site TATTATACTAA)”, the “recombinant barcode read abundance (log10)” value was 0.00549. For “TATTATACTTGGGTTCTAACCTGTTGCCT (site TATTATACTAC)”, the “recombinant barcode read abundance (log10)” value was 0.0157. For “TATTATACTTGGGTTCTAACCTGTTGCCT (site TATTATACTAG)”, the “recombinant barcode read abundance (log10)” value was 0.035. With “TATTATACTTGGGTTCTAACCTGTTGCCT (site TATTATACTAT)” the “recombinant barcode read abundance (log10)” value was 0.467. With “TATTCACCTTGGGTTCTAACCTGTTGCCT (site AATTCACCTAG)” the “recombinant barcode read abundance (log10)” value was 0.0667. In the case of “TATTCACCTTGGGTTCTAACCTGTTGCCT (site CATTCACCTAG)”, the “recombinant barcode read abundance (log10)” value is reported as 0.0903. In the case of “TATTCACCTTGGGTTCTAACCTGTTGCCT (site GATTCACCTAG)”, the “recombinant barcode read abundance (log10)” value is reported as 0.0774. With “TATTCACCTTGGGTTCTAACCTGTTGCCT (site TATTCACCTAG)” the “recombinant barcode read abundance (log10)” value was 0.358. With “TATTCTCCTTGGGTTCTAACCTGTTGCCT (site TATTCTCCTAA)” the “recombinant barcode read abundance (log10)” value was 0.212. For “TATTCTCCTTGGGTTCTAACCTGTTGCCT (site TATTCTCCTAC)”, the “recombinant barcode read abundance (log10)” value was 0.0221. With “TATTCTCCTTGGGTTCTAACCTGTTGCCT (site TATTCTCCTAG)” the “recombinant barcode read abundance (log10)” value was 0.0657. In the case of “TATTCTCCTTGGGTTCTAACCTGTTGCCT (site TATTCTCCTAT)”, the “recombinant barcode read abundance (log10)” value is reported as 0.0206. In the case of “TATTCTCCTTGGGTTCTAACCTGTTGCGT (site TATTCTCCTAA)”, the “recombinant barcode read abundance (log10)” value is reported as 0.0153. For “TATTCTCCTTGGGTTCTAACCTGTTGCGT (site TATTCTCCTAC)”, the “recombinant barcode read abundance (log10)” value was 0.243. For “TATTCTCCTTGGGTTCTAACCTGTTGCGT (site TATTCTCCTAG)”, the “recombinant barcode read abundance (log10)” value was 0.12. For “TATTCTCCTTGGGTTCTAACCTGTTGCGT (site TATTCTCCTAT)”, the “recombinant barcode read abundance (log10)” value was 0.0406. In the case of “TATTCTCCTTGGGTTCTAACCTGTTGCTT (site TATTCTCCTAA)”, the “recombinant barcode read abundance (log10)” value is reported as 0.266. For “TATTCTCCTTGGGTTCTAACCTGTTGCTT (site TATTCTCCTAC)”, the “recombinant barcode read abundance (log10)” value was 0.0156. With “TATTCTCCTTGGGTTCTAACCTGTTGCTT (site TATTCTCCTAG)” the “recombinant barcode read abundance (log10)” value was 0.0207. For “TATTCTCCTTGGGTTCTAACCTGTTGCTT (site TATTCTCCTAT)”, the “recombinant barcode read abundance (log10)” value was 0.0253. With “TATTGGACTTGGGTTCTAACCTGTTGCAG (site TATTGGACTAT)” the “recombinant barcode read abundance (log10)” value was 0.264. In the case of “TATTGGACTTGGGTTCTAACCTGTTGCAG (site TATTGGACTCT)”, the “recombinant barcode read abundance (log10)” value is reported as 1.05. With “TATTGGACTTGGGTTCTAACCTGTTGCAG (site TATTGGACTGT)” the “recombinant barcode read abundance (log10)” value was 0.0393. In the case of “TATTGGACTTGGGTTCTAACCTGTTGCAG (site TATTGGACTTT)”, the “recombinant barcode read abundance (log10)” value is reported as 0.14. In the case of “TATTTAGCTTGGGTTCTAACCTGTTGCGG (site ACCAACACTAA)”, the “recombinant barcode read abundance (log10)” value is reported as 0.0937. For “TATTTAGCTTGGGTTCTAACCTGTTGCGG (site TATTTAGCTCC)”, the “recombinant barcode read abundance (log10)” value was 0.835. In the case of “TATTTGCCTTGGGTTCTAACCTGTTGCCT (site TAATTGCCTAG)”, the “recombinant barcode read abundance (log10)” value is reported as 0.0398. With “TATTTGCCTTGGGTTCTAACCTGTTGCCT (site TACTTGCCTAG)” the “recombinant barcode read abundance (log10)” value was 0. In the case of “TATTTGCCTTGGGTTCTAACCTGTTGCCT (site TAGTTGCCTAG)”, the “recombinant barcode read abundance (log10)” value is reported as 0.408. With “TATTTGCCTTGGGTTCTAACCTGTTGCCT (site TATTTGCCTAG)” the “recombinant barcode read abundance (log10)” value was 0. For “TCAATAGCTTGGGTTCTAACCTGTTGCAC (site AAGCCGCCTAA)”, the “recombinant barcode read abundance (log10)” value was 0.204. For “TCAATAGCTTGGGTTCTAACCTGTTGCAC (site TCAATAGCTGT)”, the “recombinant barcode read abundance (log10)” value was 1.28. In the case of “TCACACTCTTGGGTTCTAACCTGTTGCCT (site TCACACTCTAG)”, the “recombinant barcode read abundance (log10)” value is reported as 1.59. With “TCACACTCTTGGGTTCTAACCTGTTGCCT (site TCCCACTCTAG)” the “recombinant barcode read abundance (log10)” value was 0.111. For “TCACACTCTTGGGTTCTAACCTGTTGCCT (site TCGCACTCTAG)”, the “recombinant barcode read abundance (log10)” value was 0.101. With “TCACACTCTTGGGTTCTAACCTGTTGCCT (site TCTCACTCTAG)” the “recombinant barcode read abundance (log10)” value was 0.114. With “TCACCACCTTGGGTTCTAACCTGTTGCCT (site GAACCACCTAG)” the “recombinant barcode read abundance (log10)” value was 0.028. In the case of “TCACCACCTTGGGTTCTAACCTGTTGCCT (site TCACCACCTAG)”, the “recombinant barcode read abundance (log10)” value is reported as 0.744. In the case of “TCACCTTCTTGGGTTCTAACCTGTTGCCT (site TCACCTTCTAG)”, the “recombinant barcode read abundance (log10)” value is reported as 0.274. In the case of “TCACCTTCTTGGGTTCTAACCTGTTGCCT (site TCACTTCCTAG)”, the “recombinant barcode read abundance (log10)” value is reported as 0.0695. For “TCACGTCCTTGGGTTCTAACCTGTTGCAG (site TCACGTCCTCT)”, the “recombinant barcode read abundance (log10)” value was 0.829. With “TCACGTCCTTGGGTTCTAACCTGTTGCAG (site TCGCGTCCTCT)” the “recombinant barcode read abundance (log10)” value was 0.183. With “TCAGCATCTTGGGTTCTAACCTGTTGCCT (site TCAGAATCTAG)” the “recombinant barcode read abundance (log10)” value was 0.0342. With “TCAGCATCTTGGGTTCTAACCTGTTGCCT (site TCAGCATCTAG)” the “recombinant barcode read abundance (log10)” value was 0.457. For “TCAGCATCTTGGGTTCTAACCTGTTGCCT (site TCAGGATCTAG)”, the “recombinant barcode read abundance (log10)” value was 0.0504. In the case of “TCAGCATCTTGGGTTCTAACCTGTTGCCT (site TCAGTATCTAG)”, the “recombinant barcode read abundance (log10)” value is reported as 0.0947. In the case of “TCAGGATCTTGGGTTCTAACCTGTTGCCT (site TCAGAATCTAG)”, the “recombinant barcode read abundance (log10)” value is reported as 0.201. For “TCAGGATCTTGGGTTCTAACCTGTTGCCT (site TCAGCATCTAG)”, the “recombinant barcode read abundance (log10)” value was 0.0751.

Source: the supplement of paper PMC11208160
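Note: IS621 recombinase and bridge RNA in Escherichia coli cells.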
